Patent US20220213178A1, “Enhanced Transfection” (The University of Nottingham, priority 2019, published 2022)

Assays:
Format in all cases: cell-based
[1] = tested on: RAW264.7 mouse macrophage cells; test: GET transfection of pCMV-Gluc pDNA into RAW264.7 cells (FIG. 2); settings: 20,000 cells, 24 hours post-transfection of 1 μg pCMV-Gluc pDNA with GET
Experimental: Experiment on 20,000 RAW264.7 mouse macrophage cells, measured at 24 hours post-transfection of 1 μg pCMV-Gluc pDNA with GET. T=TPA(μM), S=SAHA (μM).

[2] = tested on: LCL lymphoblastoid human B cells; test: GET transfection of pCMV-Gluc pDNA into LCL cells (FIG. 3); settings: 20,000 cells, 24 hours post-transfection of 1 μs pCMV-Gluc pDNA with GET; short exposures of TPA
Experimental: Experiment on 20,000 LCL lymphoblastoid human B cells, measured at 24 hours post-transfection of […] pCMV-Gluc pDNA with GET. T=TPA(μM), S=SAHA (μM). TPA is shown to have the most effect on transfection in LCL cells, and it is enhanced by SAHA. There is effectively no transfection without these modulators.

[3] = tested on: T2 hybrid human T/B cells; test: GET transfection of pCMV-Gluc pDNA into T2 cells (FIG. 1); settings: 20,000 cells, 24 hours post-transfection of 1 μg pCMV-Gluc pDNA with GET
Experimental: Experiment on 20,000 T2 hybrid human T/B cells, measured at 24 hours post-transfection of 1 μg pCMV-Gluc pDNA with GET. T=TPA(μM), S=SAHA (μM). TPA is shown as the major effect on transfection efficiency in T2 cells.

| Compound | transfection of RAW264.7 cells (Gluc) [1] | transfection of LCL cells (Gluc) [2] | transfection of T2 cells (Gluc) [3] |
| --- | --- | --- | --- |
| O=C(CCCCCCC(=O)Nc1ccccc1)NO [SAHA, suberoylanilide hydroxamic acid] | significantly enhances transfection | significantly enhances transfection |  |
| CCCCCCCCCCCCCC(=O)O[C@@H]1[C@@H](C)[C@@]2(O)[C@@H](C=C(CO)C[C@]3(O)C(=O)C(C)=C[C@@H]23)[C@@H]2C(C)(C)[C@]12OC(C)=O [TPA, phorbol 12-myristate 13-acetate] |  | significantly enhances transfection | significantly enhances transfection |
